In article PMC8987933 (Frontiers in Nutrition, 2022):
Where two headings read alike, the source gives them in different places.

Key:
human P-gp = settings: cited from earlier work
human BCRP = settings: cited from earlier work
OATP1A2 = settings: cited from earlier work
OATP1B1 = settings: cited from earlier work
OATP2B1 = settings: cited from earlier work
[1] = cited from earlier work
[2] = cited from earlier work; remark: listed apart in the source
clinical = settings: human, in vivo
Text: Healthy Chinese male subjects aged 18–45 years were recruited from a pool of over 200 healthy volunteers who had been genotyped for the ABCG2 421C>A (rs2231142) polymorphism. A total of 20 healthy Chinese male subjects were selected for the rosuvastatin pharmacokinetic study based on the ABCG2 421C>A genotypes. The study was reviewed and approved by the Joint Chinese University of Hong Kong-New Territories East Cluster Clinical Research Ethics Committee with reference number CRE-2010.524-T. The study was performed in accordance with the ethical standards laid down in the Declaration of Helsinki and subsequent revisions. Written informed consent was obtained from each participant.
All subjects were required to abstain from any prescription or non-prescription medications 2 weeks before and throughout the study. They were not allowed to take alcohol, tea, grapefruit juice, caffeine, soybean milk or dietary supplements and herbal products 2 weeks before and throughout the entire study period. They were also not allowed to smoke 2 weeks before and throughout the study. Subjects were requested to fast for 10 h before and 4 h after drug administration during the blood sampling sessions. Meals were standardized and consumed at 4 h and 10 h post-dosing. Drinking water was not allowed from 1 h pre-dose to 1 h post-dose except that needed for drug dosing at the time of blood sampling sessions. Subjects were asked to report any adverse effects at each visit to the study center.
This was an open-label, three-phase randomized crossover study. […] The herbal extracts were present as a powder which was taken in 150 ml water at room temperature. Blood samples were taken at intervals from 0 to 24 h on the rosuvastatin dosing days. During the study, subjects were frequently reminded of the requirements for diet restrictions, and they were requested to record their daily food intake, including the main meals, snacks and beverages of the day by using a simple food diary, which can help to monitor the food compliance during the study.
Plasma concentrations of rosuvastatin were determined by Liquid Chromatography-Tandem Mass Spectrometry (LC-MS/MS) using the corresponding isotopically labeled compound as an internal standard as described ([28]). The plasma samples were prepared using liquid–liquid extraction with diethyl ether. Chromatographic separation was accomplished on an Xterra MS C18 column (50 × 2.1 mm, 5 μm; Waters, Milford, MA). The mobile phase consisted of a gradient mixture of 0.015 mmol/L ammonium acetate in water (mobile phase A) and methanol (mobile phase B) at a flow rate of 0.4 mL/min. The gradient started at 20% mobile phase B for 0.5 min with a subsequent fast gradient to 100% mobile phase B in 1 min and maintained for another 2.5 min. The gradient was then returned to the initial mobile phase concentration in a chromatographic run of 8 min. MS/MS detection with quantification transition of m/z 480.1–418.1 and qualification transition of m/z 480.1–340.1 was used for rosuvastatin. The lower limit of quantification of rosuvastatin was 0.05 μg/L by using 200 μL plasma.
The pharmacokinetic parameters of rosuvastatin were calculated using non-compartmental methods with the aid of the computer program WinNolin (version 2.1, Pharsight Corporation). The maximum plasma concentration (Cmax) and time to Cmax (tmax) were obtained directly from the observed concentration-time data. The terminal elimination rate constant (λZ) was estimated by linear regression of the terminal portion of the concentration-time curve, and the elimination half-life (t1/2) was calculated as 0.693/λZ. Systemic exposure to rosuvastatin was evaluated by calculating the AUC using the linear trapezoidal rule and AUC0−∞ was calculated as AUC0−∞ = AUC0−t + Ct/Kel where Ct is the last quantifiable concentration. The oral clearance (CL/F) was calculated as Dose/AUC0−∞.

[3] = cited from earlier work; remark: listed apart in the source
[4] = with green tea; 10 healthy volunteers; cited from earlier work
[5] = cited from earlier work; remark: listed apart in the source
OATP1B3 = settings: in vitro studies; cited from earlier work
[6] = rosuvastatin administered with 300 mg pure crystalline EGCG (single dose)
[7] = pre-treatment with green tea extract (400 mg/kg) vs control

Molecule: Oc1cc(O)c2c(c1)O[C@H](c1ccc(O)c(O)c1)[C@H](O)C2 [EC, epicatechin]
- effect on P-gp-mediated dasatinib efflux (human P-gp): no significant effect
- effect on BCRP-mediated dasatinib efflux (human BCRP): no significant effect

Molecule: O=C(O[C@@H]1Cc2c(O)cc(O)cc2O[C@@H]1c1ccc(O)c(O)c1)c1cc(O)c(O)c(O)c1 [ECG, epicatechin gallate]
- inhibition of OATP1A2 (OATP1A2): can inhibit
- inhibition of OATP1B1 (OATP1B1): can inhibit
- effect on P-gp-mediated dasatinib efflux (human P-gp): no significant effect
- inhibition of OATP2B1 (OATP2B1): can inhibit
- effect on BCRP-mediated dasatinib efflux (human BCRP): no significant effect

Molecule: Oc1cc(O)c2c(c1)O[C@H](c1cc(O)c(O)c(O)c1)[C@H](O)C2 [EGC, epigallocatechin]
- effect on P-gp-mediated dasatinib efflux (human P-gp): no significant effect
- effect on BCRP-mediated dasatinib efflux (human BCRP): no significant effect

Molecule: CC(C)c1nc(N(C)S(C)(=O)=O)nc(-c2ccc(F)cc2)c1/C=C/[C@@H](O)C[C@@H](O)CC(=O)O [Rosuvastatin, rosuvastatin]
- change of systemic exposure of rosuvastatin after baicalin compared to placebo ([1]; SLCO1B1*1b/*1b subjects): −41.9%
- change of systemic exposure of rosuvastatin after baicalin compared to placebo ([1]; SLCO1B1*1b/*15 subjects): −23.9%
- systemic exposure of rosuvastatin vs baseline before EGCG ([2]; after giving EGCG daily for 10 days): not significantly different from the baseline value
- reduction of AUC up to 8 h [2, 6]: 19%
- reduction of Cmax [2, 6]: 15%
- Clearance (oral clearance CL/F) (clinical; po, 10 mg): 85.1 (28.4) L/h
- AUC0−24h GMR (90%CI) (clinical; male): 0.78
- Cmax GMR (90%CI) (clinical; male): 0.71
- AUC(0-inf) (clinical; male, 10 mg): 118 ng·h/mL
- AUC(0-t) (clinical; male, 10 mg): 109 ng·h/mL
- Cmax (clinical; male, 10 mg): 13.1 (32.2) μg/L
- half-life (clinical; male, 10 mg): 6.21 h
- tmax (clinical; male, 10 mg): 3.0 (1.5, 6.0) h

Molecule: CC(C)(C)NCC(O)COc1cccc2c1CC(O)C(O)C2 (centres unmarked) [nadolol]
- reduction in AUC of nadolol ([3]; EGCG alone (150 mg/kg)): 73%
- reduction in Cmax of nadolol ([3]; EGCG alone (150 mg/kg)): 81%
- reduction in AUC of nadolol [3, 7]: 74%
- reduction in Cmax of nadolol [3, 7]: 85%
- decrease of AUC of nadolol [4]: 85.0%
- decrease of Cmax of nadolol [4]: 85.3%

Molecule: CCN(CC)CCNC(=O)c1c(C)[nH]c(/C=C2\C(=O)Nc3ccc(F)cc32)c1C [sunitinib]
- effect of EGCG on bioavailability of sunitinib ([5]; EGCG and sunitinib taken together): reduced the bioavailability
- effect of EGCG on the pharmacokinetics of sunitinib ([5]; EGCG taken 8 or 4 h before sunitinib administration): no effect

Molecule: (–)-epigallocatechin-3-gallate [EGCG]
- effect on OATP1A2-mediated uptake of estrone-3-sulfate (OATP1A2; concentration-dependent): inhibited
- effect on OATP1B3 (OATP1B3): activate
- effect on P-gp-mediated dasatinib efflux (human P-gp): no significant effect
- effect on OATP2B1-mediated uptake of estrone-3-sulfate (OATP2B1; concentration-dependent): inhibited
- effect on BCRP-mediated dasatinib efflux (human BCRP): no significant effect
